Test results as given in ChEMBL document CHEMBL1201862, “PubChem BioAssay data set” (2004).
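Compound exposure: 48 hours, 5 concentrations, 96-well plates. Abbreviation: GI50, concentration required for 50% inhibition of growth.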 Calls of active or inactive are those of the source. No stated cut-off is given here; in the data, active = GI50 up to about 1.1 µM and inactive = higher.

Assays:
Experiment in all cases: inhibition of tumour cell growth, NCI panel, 48 h
NCI-H460 = tested on: NCI-H460
SF-268 = tested on: SF-268
RPMI-8226 = tested on: RPMI-8226
COLO 205 = tested on: COLO 205
SN12C = tested on: SN12C
CAKI-1 = tested on: CAKI-1
KM12 = tested on: KM12
SNB-75 = tested on: SNB-75
OVCAR-3 = tested on: OVCAR-3
HOP-92 = tested on: HOP-92
OVCAR-4 = tested on: OVCAR-4
SNB-19 = tested on: SNB-19
SK-OV-3 = tested on: SK-OV-3
HL-60 = tested on: HL-60
NCI/ADR-RES = tested on: NCI/ADR-RES
IGROV-1 = tested on: IGROV-1
CCRF-CEM = tested on: CCRF-CEM
M14 = tested on: M14
BT-549 = tested on: BT-549
A498 = tested on: A498
HOP-62 = tested on: HOP-62
T47D = tested on: T47D
SK-MEL-2 = tested on: SK-MEL-2
HCT-116 = tested on: HCT-116
U-251 = tested on: U-251
MCF7 = tested on: MCF7
UACC-257 = tested on: UACC-257
EKVX = tested on: EKVX
DU-145 = tested on: DU-145
MDA-N = tested on: MDA-N
NCI-H23 = tested on: NCI-H23
786-0 = tested on: 786-0
MOLT-4 = tested on: MOLT-4
SK-MEL-5 = tested on: SK-MEL-5
Malme-3M = tested on: Malme-3M
HCC 2998 = tested on: HCC 2998
A549 = tested on: A549
RXF 393 = tested on: RXF 393
HT-29 = tested on: HT-29
HCT-15 = tested on: HCT-15
UO-31 = tested on: UO-31
LOX IMVI = tested on: LOX IMVI
ACHN = tested on: ACHN
OVCAR-5 = tested on: OVCAR-5
NCI-H226 = tested on: NCI-H226
TK-10 = tested on: TK-10
PC-3 = tested on: PC-3
SK-MEL-28 = tested on: SK-MEL-28
UACC-62 = tested on: UACC-62
MDA-MB-435 = tested on: MDA-MB-435
Hs-578T = tested on: Hs-578T
SW-620 = tested on: SW-620
MDA-MB-231 = tested on: MDA-MB-231
NCI-H522 = tested on: NCI-H522
K562 = tested on: K562
SF-295 = tested on: SF-295
OVCAR-8 = tested on: OVCAR-8
SF-539 = tested on: SF-539
SR = tested on: SR

Measured: GI50

CCOc1cn(C2CC(O)C(CO)O2)c(=O)[nH]c1=O (stereo unspecified)
inactive: NCI-H460 > 100 µM | SF-268 > 100 µM | RPMI-8226 > 100 µM | COLO 205 > 100 µM | SN12C > 100 µM | CAKI-1 > 100 µM | KM12 > 100 µM | SNB-75 > 100 µM | OVCAR-3 > 100 µM | HOP-92 > 100 µM | OVCAR-4 > 100 µM | SNB-19 > 100 µM | SK-OV-3 > 100 µM | HL-60 > 100 µM | NCI/ADR-RES > 100 µM | IGROV-1 > 100 µM | CCRF-CEM > 100 µM | M14 > 100 µM | BT-549 > 100 µM | A498 45.8 µM | HOP-62 > 100 µM | T47D > 100 µM | SK-MEL-2 > 100 µM | HCT-116 > 100 µM | U-251 > 100 µM | MCF7 45.9 µM | UACC-257 > 100 µM | EKVX > 100 µM | DU-145 > 100 µM | MDA-N > 100 µM | NCI-H23 > 100 µM | 786-0 > 100 µM | MOLT-4 > 100 µM | SK-MEL-5 > 100 µM | Malme-3M > 100 µM | HCC 2998 > 100 µM | A549 > 100 µM | RXF 393 > 100 µM | HT-29 > 100 µM | UO-31 > 100 µM | LOX IMVI > 100 µM | ACHN > 100 µM | OVCAR-5 > 100 µM | NCI-H226 > 100 µM | TK-10 > 100 µM | PC-3 > 100 µM | SK-MEL-28 > 100 µM | UACC-62 > 100 µM | MDA-MB-435 > 100 µM | Hs-578T > 100 µM | SW-620 > 100 µM | MDA-MB-231 > 100 µM
> 100 µM: HCT-15

O=C(OCc1ccc([N+](=O)[O-])cc1)N1c2ccccc2[C@@]23O[C@]24CCC[C@H]3C#C/C=C\C#C[C@H]14
89.1 µM: HCT-15
inactive: NCI-H460 1.17 µM | SF-268 38.6 µM | COLO 205 65.6 µM | SN12C > 100 µM | CAKI-1 37.4 µM | KM12 > 100 µM | OVCAR-3 > 100 µM | HOP-92 > 100 µM | OVCAR-4 > 100 µM | NCI-H522 25.8 µM | SNB-19 > 100 µM | SK-OV-3 > 100 µM | HL-60 25 µM | NCI/ADR-RES 43.6 µM | IGROV-1 > 100 µM | CCRF-CEM 12.9 µM | M14 > 100 µM | BT-549 > 100 µM | A498 > 100 µM | T47D > 100 µM | SK-MEL-2 > 100 µM | HCT-116 > 100 µM | U-251 > 100 µM | MCF7 8.18 µM | UACC-257 > 100 µM | EKVX > 100 µM | DU-145 > 100 µM | MDA-N > 100 µM | K562 88.1 µM | NCI-H23 > 100 µM | 786-0 > 100 µM | MOLT-4 3.27 µM | SK-MEL-5 > 100 µM | Malme-3M 19.6 µM | SF-295 > 100 µM | HCC 2998 > 100 µM | A549 8.77 µM | RXF 393 > 100 µM | HT-29 > 100 µM | UO-31 > 100 µM | LOX IMVI 56.5 µM | ACHN 78.9 µM | OVCAR-5 > 100 µM | NCI-H226 > 100 µM | TK-10 > 100 µM | PC-3 > 100 µM | SK-MEL-28 > 100 µM | UACC-62 > 100 µM | MDA-MB-435 > 100 µM | Hs-578T 58.9 µM | SW-620 72.9 µM | MDA-MB-231 > 100 µM | OVCAR-8 > 100 µM | SF-539 > 100 µM

COc1cc(-c2cc(=O)c3c(O)c(CC=C(C)C)c(O)cc3o2)ccc1O
15 µM: HCT-15
inactive: NCI-H460 19.5 µM | SF-268 24.6 µM | RPMI-8226 11.7 µM | COLO 205 > 50 µM | SN12C > 50 µM | CAKI-1 10 µM | OVCAR-3 14.9 µM | HOP-92 > 50 µM | OVCAR-4 15.8 µM | SNB-19 > 50 µM | SR 14.7 µM | SK-OV-3 32.3 µM | HL-60 > 50 µM | NCI/ADR-RES 16 µM | IGROV-1 24 µM | CCRF-CEM 16.8 µM | M14 12.4 µM | BT-549 21.6 µM | A498 > 50 µM | HOP-62 24.2 µM | T47D 9.77 µM | SK-MEL-2 23.6 µM | HCT-116 16.2 µM | U-251 24.1 µM | MCF7 25.1 µM | UACC-257 > 50 µM | EKVX 7.29 µM | DU-145 32.9 µM | MDA-N 8.49 µM | K562 16.7 µM | NCI-H23 > 50 µM | MOLT-4 16.3 µM | SK-MEL-5 14.6 µM | Malme-3M 13.5 µM | SF-295 12 µM | A549 26 µM | RXF 393 24.4 µM | HT-29 > 50 µM | UO-31 33.5 µM | LOX IMVI 19.1 µM | ACHN 19.1 µM | OVCAR-5 > 50 µM | NCI-H226 > 50 µM | TK-10 23.4 µM | PC-3 16.7 µM | SK-MEL-28 1.17 µM | UACC-62 23 µM | MDA-MB-435 9.1 µM | Hs-578T 29.5 µM | SW-620 16.7 µM | MDA-MB-231 43.5 µM | OVCAR-8 26.7 µM | SF-539 16.9 µM

C=CCOCn1ccc(N)nc1=O
> 100 µM: HCT-15
inactive: SF-268 > 100 µM | RPMI-8226 > 100 µM | COLO 205 > 100 µM | SN12C > 100 µM | CAKI-1 > 100 µM | KM12 > 100 µM | SNB-75 > 100 µM | NCI-H522 > 100 µM | SNB-19 > 100 µM | SR > 100 µM | SK-OV-3 > 100 µM | HL-60 > 100 µM | IGROV-1 > 100 µM | CCRF-CEM > 100 µM | M14 > 100 µM | BT-549 > 100 µM | HOP-62 > 100 µM | T47D > 100 µM | HCT-116 > 100 µM | MCF7 > 100 µM | UACC-257 > 100 µM | EKVX > 100 µM | DU-145 > 100 µM | MDA-N > 100 µM | K562 > 100 µM | NCI-H23 > 100 µM | 786-0 > 100 µM | MOLT-4 > 100 µM | SK-MEL-5 > 100 µM | Malme-3M > 100 µM | SF-295 > 100 µM | HCC 2998 > 100 µM | A549 > 100 µM | HT-29 > 100 µM | UO-31 > 100 µM | LOX IMVI > 100 µM | NCI-H226 > 100 µM | TK-10 > 100 µM | PC-3 > 100 µM | SK-MEL-28 > 100 µM | UACC-62 > 100 µM | MDA-MB-435 > 100 µM | Hs-578T > 100 µM | SW-620 > 100 µM | MDA-MB-231 > 100 µM | OVCAR-8 > 100 µM | SF-539 > 100 µM

Cc1ccc(CC(=O)Nc2ccc(NC(=O)/C=C/NC(=O)/C=C/c3ccc(-c4ccccc4)cc3)cc2C(=O)c2ccccc2)cc1
active: IGROV-1 0.975 µM | HCT-116 1.12 µM | HCC 2998 0.0237 µM | OVCAR-8 0.871 µM
inactive: NCI-H460 1.87 µM | SF-268 2.62 µM | RPMI-8226 2.4 µM | COLO 205 1.75 µM | SN12C 1.92 µM | CAKI-1 3.29 µM | KM12 2.93 µM | SNB-75 1.93 µM | OVCAR-3 1.88 µM | OVCAR-4 1.48 µM | SNB-19 3.05 µM | SK-OV-3 1.85 µM | HL-60 16.9 µM | NCI/ADR-RES 5.41 µM | CCRF-CEM 2.16 µM | M14 2.56 µM | BT-549 1.46 µM | A498 2.31 µM | HOP-62 2.11 µM | T47D 2.84 µM | SK-MEL-2 1.89 µM | U-251 1.85 µM | MCF7 1.72 µM | UACC-257 2.05 µM | EKVX 1.32 µM | DU-145 3.94 µM | MDA-N 2.5 µM | K562 11.1 µM | NCI-H23 1.85 µM | 786-0 1.6 µM | MOLT-4 4.17 µM | SK-MEL-5 2.09 µM | Malme-3M 3.39 µM | SF-295 1.36 µM | A549 1.77 µM | RXF 393 1.46 µM | HT-29 5.06 µM | UO-31 3.67 µM | LOX IMVI 2.03 µM | ACHN 3.08 µM | OVCAR-5 2.09 µM | NCI-H226 2.42 µM | TK-10 2.78 µM | PC-3 1.47 µM | SK-MEL-28 3.03 µM | UACC-62 2.16 µM | MDA-MB-435 3.27 µM | Hs-578T 1.73 µM | SW-620 1.57 µM | MDA-MB-231 1.87 µM | SF-539 1.67 µM
2.7 µM: HCT-15
